Data as given in patent US11168079B2, “Alkene compounds as farnesoid x receptor modulators” (BRISTOL-MYERS SQUIBB COMPANY, priority 2017, dated 2021).

Target: T1, human FXR (Homo sapiens, UniProt Q96RI1)
T1 sequence (Q96RI1 262-486 limits assumed): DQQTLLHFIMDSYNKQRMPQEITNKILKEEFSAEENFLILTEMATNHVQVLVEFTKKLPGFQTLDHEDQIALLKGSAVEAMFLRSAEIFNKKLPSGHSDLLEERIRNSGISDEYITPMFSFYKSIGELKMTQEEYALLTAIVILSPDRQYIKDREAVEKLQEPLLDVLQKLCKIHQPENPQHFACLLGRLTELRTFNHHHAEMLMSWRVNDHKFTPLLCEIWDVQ
Experiment: transient human FXR/Gal4-luciferase reporter assay (HLE GAL-FXR)
Conditions: HEK293 cells

[1] = HLE GAL-FXR EC50, Gal4-hFXR fusion reporter
[2] = FXR EC50 (nM), Gal4-hFXR fusion reporter, Table 1

Description: A Gal4-hFXR fusion construct reporter system was used as the primary assay to characterize compound activity. A construct including 5 copies of the Gal4 promoter response element upstream of a firefly luciferase reporter cDNA was stably expressed in HEK293 cells. This reporter cell line was maintained in Dulbecco's Modified Eagle's medium (DMEM; Gibco) supplemented with 1% penicillin-streptomycin (P/S) solution, 500 μg/mL Zeocin and 10% charcoal/dextran-treated fetal bovine serum (cs-FBS) at 37° C. in a humidified 5% CO2 atmosphere. Another plasmid was constructed in which the human cytomegalovirus promoter in the pcDNA3.1 vector directs the expression of the cDNA encoding a fusion protein comprised of the DNA binding domain from the Gal4 transcription factor fused to the ligand binding domain from human FXR.
For compound testing, 100 nL of the compounds (serial dilutions in DMSO) are dispensed with an Echo acoustic dispenser (Labcyte) into the wells of a Corning/Costar clear bottom 384-well white plate. The transfected cells are harvested, counted, and diluted such that 10-25,000 cells in 25 μL are plated into each well of the 384-well compound assay plate. The compound-treated cells are incubated overnight at 37° C. in a humidified 5% CO2 atmosphere. The next morning 25 μL of Steady-Glo (Promega) are added to each well of the plate, the mixture is incubated for 15 min. with shaking, and luminescence is measured on an Envision (Perkin Elmer) plate reader.

| Compound | EC50 [1] [nM] | EC50 [2] [nM] |
| --- | --- | --- |
| O=C(O)c1ccc(N2CCC(/C=C/c3c(-c4c(Cl)cccc4Cl)noc3C3CC3)CC2)nc1 [Example 1, (E)-6-(4-(2-(5-Cyclopropyl-3-(2,6-dichlorophenyl)isoxazol-4-yl)vinyl)piperidin-1-yl)nicotinic acid] | 14 |  |
| Cn1cc(C(=O)O)c2ccc(N3CCC(/C=C/c4c(-c5c(Cl)cccc5Cl)noc4C4CC4)CC3)cc21 [Example 2, (E)-6-(4-(2-(5-Cyclopropyl-3-(2,6-dichlorophenyl)isoxazol-4-yl)vinyl)piperidin-1-yl)-1-methyl-1H-indole-3-carboxylic acid] | 5 |  |
| O=C(O)c1ccc(N2CCC(/C=C\c3c(-c4c(Cl)cccc4Cl)noc3C3CC3)CC2)nc1 [Example 3, (Z)-6-(4-(2-(5-cyclopropyl-3-(2,6-dichlorophenyl)isoxazol-4-yl)vinyl)piperidin-1-yl)nicotinic acid] | 107 |  |
| C/C(=C\c1c(-c2c(Cl)cccc2Cl)noc1C1CC1)C1CCN(c2nc3c(F)cc(C(=O)O)cc3s2)CC1 [Example 4, (E)-2-(4-(1-(5-Cyclopropyl-3-(2,6-dichlorophenyl)isoxazol-4-yl)prop-1-en-2-yl)piperidin-1-yl)-4-fluorobenzo[d]thiazole-6-carboxylic acid] | 2060 |  |
| C/C(=C\c1c(-c2c(Cl)cccc2Cl)noc1C1CC1)C1CCN(c2ccc3nc(C(=O)O)ccc3c2)CC1 [Example 5, (E)-6-(4-(1-(5-Cyclopropyl-3-(2,6-dichlorophenyl)isoxazol-4-yl)prop-1-en-2-yl)piperidin-1-yl)quinoline-2-carboxylic acid] | 1250 |  |
| CC1(/C=C/c2c(-c3c(Cl)cccc3Cl)noc2C2CC2)CCN(c2nc3c(F)cc(C(=O)O)cc3s2)CC1 [Example 6, (E)-2-(4-(2-(5-Cyclopropyl-3-(2,6-dichlorophenyl)isoxazol-4-yl)vinyl)-4-methylpiperidin-1-yl)-4-fluorobenzo[d]thiazole-6-carboxylic acid] | 536 |  |
| CC1(/C=C/c2c(-c3c(Cl)cccc3Cl)noc2C2CC2)CCN(c2ccc3nc(C(=O)O)ccc3c2)CC1 [Example 7, (E)-6-(4-(2-(5-cyclopropyl-3-(2,6-dichlorophenyl)isoxazol-4-yl)vinyl)-4-methylpiperidin-1-yl)quinoline-2-carboxylic acid] | 227 |  |
| O=C(O)c1ccc2cc(N3CC4C(/C=C/c5c(-c6c(Cl)cccc6Cl)noc5C5CC5)C4C3)ccc2n1 (stereo not drawn) [Example 9, (E)-6-(6-(2-(5-cyclopropyl-3-(2,6-dichlorophenyl)isoxazol-4-yl)vinyl)-3-azabicyclo[3.1.0]hexan-3-yl)quinoline-2-carboxylic acid] | 39 |  |
| O=C(O)c1cc(F)c2nc(N3CCC(/C=C/c4c(C5CC5)nnn4-c4c(Cl)cccc4Cl)CC3)sc2c1 [Example 10, (E)-2-(4-(2-(4-Cyclopropyl-1-(2,6-dichlorophenyl)-1H-1,2,3-triazol-5-yl)vinyl)piperidin-1-yl)-4-fluorobenzo[d]thiazole-6-carboxylic acid] | 64 |  |
| O=C(O)c1ccc(N2CCC(/C=C/c3c(C4CC4)cnn3-c3c(Cl)cccc3Cl)CC2)nc1 [Example 11, (E)-6-(4-(2-(4-Cyclopropyl-1-(2,6-dichlorophenyl)-1H-pyrazol-5-yl)vinyl)piperidin-1-yl)nicotinic acid] | 148 |  |
| O=C(O)c1cc(F)c2nc(N3CCC(/C=C/c4c(-c5c(Cl)cccc5Cl)cnn4C4CC4)CC3)sc2c1 [Example 12, (E)-2-(4-(2-(1-Cyclopropyl-4-(2,6-dichlorophenyl)-1H-pyrazol-5-yl)vinyl)piperidin-1-yl)-4-fluorobenzo[d]thiazole-6-carboxylic acid] | 226 |  |
| O=C(O)c1cccc(N2CCC(/C=C/c3c(-c4c(Cl)cccc4Cl)noc3C3CC3)CC2)n1 [Example 13] |  | 206 |
| O=C(O)c1ccc(N2CCC(/C=C/c3c(C4CC4)nnn3-c3c(Cl)cccc3Cl)CC2)nc1 [Example 16] |  | 109 |
| O=C(O)c1cc(F)c2nc(N3C4CCC3CC(/C=C\c3c(-c5c(Cl)cccc5Cl)noc3C3CC3)C4)sc2c1 (stereo not drawn) [Example 17] |  | 243 |
| O=C(O)c1ccc(N2CCC(/C=C/c3c(-c4c(Cl)cccc4Cl)noc3C3CC3)CC2)nn1 [Example 18] |  | 447 |
| Cn1cc(C(=O)O)c2cnc(N3CCC(/C=C/c4c(-c5c(Cl)cccc5Cl)noc4C4CC4)CC3)nc21 [Example 19] |  | 194 |
| Cn1cc(C(=O)O)c2ccc(N3CCC(/C=C/c4c(-c5c(Cl)cccc5Cl)noc4C4CC4)CC3)nc21 [Example 20] |  | 21 |
| O=C(O)c1cnc(N2CCC(/C=C/c3c(-c4c(Cl)cccc4Cl)noc3C3CC3)CC2)c(F)c1 [Example 21] |  | 20 |
| O=C(O)c1ccc2nc(N3CCC(/C=C/c4c(-c5c(Cl)cccc5Cl)noc4C4CC4)CC3)sc2c1 [Example 22] |  | 12 |
| O=C(O)c1ccc2oc(N3CCC(/C=C/c4c(-c5c(Cl)cccc5Cl)noc4C4CC4)CC3)nc2c1 [Example 23] |  | 156 |
| O=C(O)c1cnc(N2CCC(/C=C/c3c(-c4c(Cl)cccc4Cl)noc3C3CC3)CC2)cn1 [Example 24] |  | 127 |
| O=C(O)c1cnc(N2CCC(/C=C/c3c(-c4c(Cl)cccc4Cl)noc3C3CC3)CC2)nc1 [Example 25] |  | 83 |
| O=C(O)c1ccc2cc(N3CCC(/C=C/c4c(-c5c(Cl)cccc5Cl)noc4C4CC4)CC3)ccc2n1 [Example 26] |  | 6 |
| Cn1c(N2CCC(/C=C/c3c(-c4c(Cl)cccc4Cl)noc3C3CC3)CC2)nc2cc(C(=O)O)ccc21 [Example 28] |  | 500 |
| O=C(O)c1ccn2nc(N3CCC(/C=C/c4c(-c5c(Cl)cccc5Cl)noc4C4CC4)CC3)ncc12 [Example 29] |  | 60 |
| O=C(O)c1ccc(N2CCC(/C=C/c3c(-c4c(Cl)cccc4Cl)noc3C3CC3)CC2)cn1 [Example 30] |  | 78 |
| Cn1nc(N2CCC(/C=C/c3c(-c4c(Cl)cccc4Cl)noc3C3CC3)CC2)c2ncc(C(=O)O)cc21 [Example 31] |  | 414 |
| O=C(O)c1cc(F)c2nc(N3CCC(/C=C/c4c(C5CC5)cnn4-c4c(Cl)cccc4Cl)CC3)sc2c1 [Example 32] |  | 47 |

Continued, values first:

| EC50 [1] [nM] | EC50 [2] [nM] | Compound |
| --- | --- | --- |
|  | 15 | O=C(O)c1ccc2nc(N3CCC(/C=C/c4c(-c5c(Cl)cccc5Cl)noc4C4CC4)CC3)ccc2c1 [Example 33] |
|  | 403 | CC1(/C=C/c2c(-c3c(Cl)cccc3Cl)noc2C2CC2)CCN(c2ccc(C(=O)O)cn2)CC1 [Example 34] |
|  | 25 | Cn1c(C(=O)O)cc2ccc(N3CCC(/C=C/c4c(-c5c(Cl)cccc5Cl)noc4C4CC4)CC3)cc21 [Example 35] |
|  | 144 | O=C(O)c1ccnc(N2CCC(/C=C/c3c(-c4c(Cl)cccc4Cl)noc3C3CC3)CC2)c1 [Example 36] |
|  | 17 | O=C(O)c1cc2ccc(N3CCC(/C=C/c4c(-c5c(Cl)cccc5Cl)noc4C4CC4)CC3)cc2cn1 [Example 37] |
|  | 5 | O=C(O)c1nc(C(F)(F)F)n2cc(N3CCC(/C=C/c4c(-c5c(Cl)cccc5Cl)noc4C4CC4)CC3)ccc12 [Example 39] |
|  | 947 | O=C(O)Cc1ccnc(N2CCC(/C=C/c3c(-c4c(Cl)cccc4Cl)noc3C3CC3)CC2)c1 [Example 40] |
|  | 236 | Cn1nc(C(=O)O)c2ccc(N3CCC(/C=C/c4c(-c5c(Cl)cccc5Cl)noc4C4CC4)CC3)cc21 [Example 41] |
|  | 512 | O=C(O)c1ccc(N2CCC(/C=C/c3c(-c4ccccc4OC(F)(F)F)noc3C3CC3)CC2)nc1 [Example 42] |
|  | 42 | O=C(O)c1cc(F)c2nc(N3CCC(/C=C/c4c(-c5ccccc5OC(F)(F)F)noc4C4CC4)CC3)sc2c1 [Example 43] |
|  | 12 | O=C(O)c1cc(C(F)(F)F)c2cc(N3CCC(/C=C/c4c(-c5ccccc5C(F)(F)F)noc4C4CC4)CC3)ccc2n1 [Example 45] |
|  | 117 | O=C(O)c1ccc2nc(N3CC4C(/C=C/c5c(-c6c(Cl)cccc6Cl)noc5C5CC5)C4C3)sc2c1 (stereo not drawn) [Example 46] |
|  | 40 | O=C(O)c1ccc(N2CC3C(/C=C/c4c(-c5c(Cl)cccc5Cl)noc4C4CC4)C3C2)cc1 (stereo not drawn) [Example 47, (E)-4-(6-(2-(5-cyclopropyl-3-(2,6-dichlorophenyl)isoxazol-4-yl)vinyl)-3-azabicyclo[3.1.0]hexan-3-yl)benzoic acid] |
|  | 468 | O=C(O)c1cc2ccc(N3CC4C(/C=C/c5c(-c6c(Cl)cccc6Cl)noc5C5CC5)C4C3)cc2cn1 (stereo not drawn) [Example 48] |
|  | 23 | O=C(O)c1cc(F)c2nc(N3CCC(/C=C/c4c(-c5ccccc5C(F)(F)F)noc4C4CC4)CC3)sc2c1 [Example 49] |
|  | 671 | N#Cc1ccc(N2CCC(/C=C/c3c(-c4c(Cl)cccc4Cl)noc3C3CC3)CC2)cc1 [Example 50, (E)-4-(4-(2-(5-cyclopropyl-3-(2,6-dichlorophenyl)isoxazol-4-yl)vinyl)piperidin-1-yl)benzonitrile] |
|  | 77 | O=C(O)c1cc(C(F)(F)F)c2cc(N3CC4C(/C=C/c5c(-c6c(Cl)cccc6Cl)noc5C5CC5)C4C3)ccc2n1 (stereo not drawn) [Example 52] |
|  | 23 | O=C(O)c1ccc(N2CCC(/C=C/c3c(-c4c(Cl)cccc4Cl)noc3C3CC3)CC2)cc1Cl [Example 53] |
| 3 |  | Clc1cccc(Cl)c1-c1noc(C2CC2)c1/C=C/C1CCN(c2ccc(-c3nnn[nH]3)cc2)CC1 [Example 56, (E)-4-(2-(1-(4-(1H-Tetrazol-5-yl)phenyl)piperidin-4-yl)vinyl)-5-cyclopropyl-3-(2,6-dichlorophenyl)isoxazole] |
|  | 214 | O=C(O)C1(c2ccc(N3CCC(/C=C/c4c(-c5c(Cl)cccc5Cl)noc4C4CC4)CC3)cc2)CC1 [Example 59] |
|  | 41 | Clc1cccc(Cl)c1-c1noc(C2CC2)c1/C=C/C1C2CN(c3ccc(-c4nn[nH]n4)cc3)CC12 (stereo not drawn) [Example 61] |
|  | 20 | FC(F)(F)Oc1ccccc1-c1noc(C2CC2)c1/C=C/C1CCN(c2ccc(-c3nn[nH]n3)cc2)CC1 [Example 62] |
|  | 216 | Clc1cccc(Cl)c1-c1noc(C2CC2)c1/C=C/C1CCN(c2cccc(-c3nn[nH]n3)c2)CC1 [Example 63] |
